Reference: patent US5004747A, “Isoquinolinones” (May & Baker Limited, priority 1988, dated 1991)

Target: T1, rat hepatic microsomal HMG CoA reductase (Rattus norvegicus, UniProt P51639)
T1 construct: rat hepatic microsomal HMG CoA reductase; from tissue; host or cells: rat liver microsomes
T1 sequence (P51639 1-887): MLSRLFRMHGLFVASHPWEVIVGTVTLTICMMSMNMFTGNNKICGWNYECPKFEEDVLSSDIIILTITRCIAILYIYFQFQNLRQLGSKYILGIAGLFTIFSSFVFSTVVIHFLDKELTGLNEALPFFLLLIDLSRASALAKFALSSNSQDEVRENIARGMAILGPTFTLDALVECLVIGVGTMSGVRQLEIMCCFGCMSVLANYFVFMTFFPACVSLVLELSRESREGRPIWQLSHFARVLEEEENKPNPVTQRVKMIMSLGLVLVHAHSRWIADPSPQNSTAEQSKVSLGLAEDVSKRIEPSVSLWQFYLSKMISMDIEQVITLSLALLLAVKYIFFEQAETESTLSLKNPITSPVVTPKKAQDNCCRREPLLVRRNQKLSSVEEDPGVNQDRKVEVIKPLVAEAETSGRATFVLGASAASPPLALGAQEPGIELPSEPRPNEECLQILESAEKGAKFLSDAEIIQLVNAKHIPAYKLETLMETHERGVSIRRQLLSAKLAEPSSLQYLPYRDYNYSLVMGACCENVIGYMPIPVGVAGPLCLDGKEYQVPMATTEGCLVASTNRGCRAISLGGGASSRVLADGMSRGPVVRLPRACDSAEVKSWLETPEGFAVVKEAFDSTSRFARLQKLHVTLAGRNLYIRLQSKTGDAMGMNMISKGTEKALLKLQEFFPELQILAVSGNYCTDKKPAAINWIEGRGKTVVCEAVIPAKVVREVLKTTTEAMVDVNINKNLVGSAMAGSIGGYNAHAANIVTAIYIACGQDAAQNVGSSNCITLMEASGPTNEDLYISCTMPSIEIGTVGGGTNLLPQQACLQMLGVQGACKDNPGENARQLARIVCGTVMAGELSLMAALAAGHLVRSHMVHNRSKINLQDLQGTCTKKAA
Assay: inhibition of rat hepatic microsomal HMG CoA reductase activity in vitro (Table I)
Assay type: biochemical
Conditions: for inhibition at 0.082 µg/mL: 0.082 micrograms/ml; for inhibition at 0.25 µg/mL: 0.25 micrograms/ml; for inhibition at 0.74 µg/mL: 0.74 micrograms/ml; for inhibition at 2.22 µg/mL: 2.22 micrograms/ml; for inhibition at 6.66 µg/mL: 6.66 micrograms/ml; for inhibition at 20 µg/mL: 20.0 micrograms/ml; for inhibition at 0.0274 µg/mL: 0.0274 micrograms/ml; for inhibition at 2 µg/mL: 2.0 micrograms/ml; for inhibition at 0.24 µg/mL: 0.24 micrograms/ml
Description: In the table the concentrations of the test compounds are expressed in micrograms/ml.

Row | Compound | inhibition at 0.082 µg/mL [%] | inhibition at 0.25 µg/mL [%] | inhibition at 0.74 µg/mL [%] | inhibition at 2.22 µg/mL [%] | inhibition at 6.66 µg/mL [%] | inhibition at 20 µg/mL [%] | inhibition at 0.0274 µg/mL [%] | inhibition at 2 µg/mL [%] | inhibition at 0.24 µg/mL [%] | inhibition at 0.0824 µg/mL (0.0824 micrograms/ml) [%]
1 | CC(C)c1c(/C=C/[C@@H]2C[C@@H](O)CC(O)O2)n(-c2ccc(F)cc2)c(=O)c2ccccc12 (mixture of isomers) [Compound M, (2RS,4R,6S)-(E)-2,4-dihydroxy-6-[2-(2-(4-fluorophenyl)-4-isopropyl-1-oxo-1,2-dihydroisoquinolin-3-yl)ethen-1-yl]-3,4,5,6-tetrahydro-2H-pyran] | 27 | 18 | 31 | 44 | 56 | 72 | – | – | – | –
2 | CC(C)c1c(/C=C/[C@@H]2C[C@@H](O)CC(=O)O2)n(CC2CCCCC2)c(=O)c2ccccc12 [AB, (4R,6S)-(E)-6-(2-(2-cyclohexylmethyl-4-isopropyl-1-oxo-1,2-dihydroisoquinolin-3-yl)ethen-1-yl)-4-hydroxy-3,4,5,6-tetrahydro-2H-pyran-2-one] | – | – | 20 | 41 | 66 | – | – | – | – | –
3 | CC(C)n1c(/C=C/[C@@H](O)C[C@@H](O)CC(=O)O)c(-c2ccc(F)cc2)c2ccccc2c1=O [AF, sodium (3R,5S)-(E)-3,5-dihydroxy-7-(4-(4-fluorophenyl)-2-isopropyl-1-oxo-1,2-dihydroisoquinolin-3-yl)hept-6-enoate] | 38 | 65 | 83 | 93 | 95 | – | 15 | – | – | –
4 | CC(C)c1c(/C=C/[C@@H](O)C[C@@H](O)CC(=O)O)n(-c2ccc(F)cc2)c(=O)c2ccccc12 [AG, sodium (3R,5S)-(E)-3,5-dihydroxy-7-(2-(4-fluorophenyl)-4-isopropyl-1-oxo-1,2-dihydroisoquinolin-3-yl)hept-6-enoate] | 57 | 74 | 89 | 96 | – | – | 15 | – | – | –
5 | CC(C)c1c(CC[C@@H]2C[C@@H](O)CC(=O)O2)n(-c2ccc(F)cc2)c(=O)c2ccccc12 [AH, (4R,6R)-6-[2-{2-(4-fluorophenyl)-4-isopropyl-1-oxo-1,2-dihydroisoquinolin-3-yl}ethyl]-4-hydroxy-3,4,5,6-tetrahydro-2H-pyran-2-one] | 33 | 31 | 47 | 61 | 79 | 91 | – | – | – | –
6 | CC(C)n1c(CC[C@@H]2C[C@@H](O)CC(=O)O2)c(-c2ccc(F)cc2)c2ccccc2c1=O [AI, (4R,6R)-6-(2-(4-(4-fluorophenyl)-2-isopropyl-1-oxo-1,2-dihydroisoquinolin-3-yl)ethyl)-4-hydroxy-3,4,5,6-tetrahydro-2H-pyran-2-one] | 16 | 38 | 62 | 81 | 92 | – | – | – | – | –
7 | Cn1c(/C=C/C(O)CC(O)CC(=O)O)c(-c2ccccc2)c2ccccc2c1=O (stereo not drawn) [B, (E)-3,5-dihydroxy-7-(2-methyl-1-oxo-4-phenyl-1,2-dihydroisoquinolin-3-yl)hept-6-enoic acid] | – | – | – | – | – | 65 | – | 5 | – | –
8 | Cn1c(/C=C/C(O)CC(O)CC(=O)O)c(-c2ccccc2)c2ccccc2c1=O (stereo not drawn) [BA, sodium (E)-3,5-dihydroxy-7-(2-methyl-1-oxo-4-phenyl-1,2-dihydroisoquinolin-3-yl)hept-6-enoate] | – | – | – | – | – | 61 | – | 0 | – | –
9 | CCOC(=O)CC(O)CC(O)/C=C/c1c(-c2ccc(F)cc2)c2ccccc2c(=O)n1C(C)C (stereo not drawn) [Compound D, ethyl (E)-3,5-dihydroxy-7-[4-(4-fluorophenyl)-2-isopropyl-1-oxo-1,2-dihydroisoquinolin-3-yl]hept-6-enoate] | – | – | 35 | 62 | 85 | 94 | – | – | 11 | –
10 | CC(C)n1c(/C=C/C(O)CC(O)CC(=O)O)c(-c2ccc(F)cc2)c2ccccc2c1=O (stereo not drawn) [Compound E, (E)-3,5-dihydroxy-7-[4-(4-fluorophenyl)-2-isopropyl-1-oxo-1,2-dihydroisoquinolin-3-yl]hept-6-enoic acid] | – | – | 28 | 61 | 82 | 94 | – | – | 15 | –
11 | CC(C)n1c(/C=C/C(O)CC(O)CC(=O)O)c(-c2ccc(F)cc2)c2ccccc2c1=O (stereo not drawn) [Compound F, sodium (E)-3,5-dihydroxy-7-[4-(4-fluorophenyl)-2-isopropyl-1-oxo-1,2-dihydroisoquinolin-3-yl]hept-6-enoate] | – | – | 59 | 80 | 91 | 97 | – | – | 37 | –
12 | CC(C)n1c(/C=C/C2CC(O)CC(=O)O2)c(-c2ccc(F)cc2)c2ccccc2c1=O (stereo not drawn) [Compound G, (E)-4-hydroxy-6-[2-{4-(4-fluorophenyl)-2-isopropyl-1-oxo-1,2-dihydroisoquinolin-3-yl}ethenyl]-3,4,5,6-tetrahydro-2H-pyran-2-one] | 14 | 29 | 58 | 81 | 93 | 97 | – | – | – | –
13 | CC(C)c1c(/C=C/[C@@H]2C[C@@H](O)CC(=O)O2)n(-c2ccc(F)cc2)c(=O)c2ccccc12 [Compound I, (4R,6S)-(E)-4-hydroxy-6-[2-{2-(4-fluorophenyl)-4-isopropyl-1-oxo-1,2-dihydroisoquinolin-3-yl}ethen-1-yl]-3,4,5,6-tetrahydro-2H-pyran-2-one] | 48 | 72 | 88 | 96 | – | – | 25 | – | – | –
14 | COC(=O)C[C@H](O)C[C@H](O)/C=C/c1c(-c2ccc(F)cc2)c2ccccc2c(=O)n1C(C)C [Compound J, methyl (3R,5S)-(E)-3,5-dihydroxy-7-[4-(4-fluorophenyl)-2-isopropyl-1-oxo-1,2-dihydroisoquinolin-3-yl]hept-6-enoate] | 28 | 55 | 79 | 92 | – | – | 13 | – | – | –
15 | CC(C)n1c(/C=C/[C@@H]2C[C@@H](O)CC(=O)O2)c(-c2ccc(F)cc2)c2ccccc2c1=O [H, (4R,6S)-(E)-4-hydroxy-6-[2-{4-(4-fluorophenyl)-2-isopropyl-1-oxo-1,2-dihydroisoquinolin-3-yl}-ethen-1-yl]-3,4,5,6-tetrahydro-2H-pyran-2-one] | 49 | 66 | 85 | 95 | 99 | 100 | – | – | – | –
16 | COc1ccc(-n2c(/C=C/[C@@H]3C[C@@H](O)CC(=O)O3)c(C(C)C)c3ccccc3c2=O)cc1 [N, (4R,6S)-(E)-4-hydroxy-6-(2-(2-(4-methoxyphenyl)-4-isopropyl-1-oxo-1,2-dihydroisoquinolin-3-yl)ethen-1-yl)-3,4,5,6-tetrahydro-2H-pyran-2-one] | – | 13 | 34 | 59 | 80 | – | – | – | – | 16
17 | Cc1cc(-n2c(/C=C/[C@@H]3C[C@@H](O)CC(=O)O3)c(C(C)C)c3ccccc3c2=O)ccc1F [P, (4R,6S)-(E)-6-(2-(2-(4-fluoro-3-methylphenyl)-4-isopropyl-1-oxo-1,2-dihydroisoquinolin-3-yl)ethen-1-yl)-4-hydroxy-3,4,5,6-tetrahydro-2H-pyran-2-one] | 27 | 39 | 63 | 81 | 90 | 90 | – | – | – | –
18 | CC(C)c1c(/C=C/[C@@H]2C[C@@H](O)CC(=O)O2)n(-c2ccc(Cl)cc2)c(=O)c2ccccc12 [R, (4R,6S)-(E)-6-(2-(2-(4-chlorophenyl)-4-isopropyl-1-oxo-1,2-dihydroisoquinolin-3-yl)ethen-1-yl)-4-hydroxy-3,4,5,6-tetrahydro-2H-pyran-2-one] | 21 | 35 | 56 | 78 | 91 | 97 | – | – | – | –
19 | Cc1c(/C=C/[C@@H]2C[C@@H](O)CC(=O)O2)n(-c2ccc(F)cc2)c(=O)c2ccccc12 [V, (4R,6S)-(E)-6-(2-(2-(4-fluorophenyl)-4-methyl-1-oxo-1,2-dihydroisoquinolin-3-yl)ethen-1-yl)-4-hydroxy-3,4,5,6-tetrahydro-2H-pyran-2-one] | – | – | 10 | 40 | 67 | 85 | – | – | – | –
